Like-named read-outs stand apart in the source and are kept apart here.
Assays:
[1] = Pharmacokinetic and in vivo leakage studies; settings: plasma, ICR mice; for AUC / Cmax / clearance: mouse, iv
Procedure: 5. Pharmacokinetic and in vivo leakage studies. […] Two different drug-to-lipid ratios, i.e., 0.10 (w/w) and 0.02 (w/w), were used to examine the influence of drug-to-lipid ratio and lipid dose on drug leakage and PK behavior. Encapsulated topotecan was administered at 1 mg/kg (10 or 50 mg/kg lipid) and 5 mg/kg topotecan (50 mg/kg lipid). […] Total topotecan in blood was determined by a fluorescence assay preceded by precipitation of plasma proteins. Topotecan was quantified by spectrofluorimetry at an excitation (2.5 nm slit width) and emission wavelength (2.5 nm slit width) of 380 and 518 nm, respectively. Lipid levels in plasma were determined by liquid scintillation counting of the [^3H]-CHE label.

[2] = Myelosuppression and neutropenia studies (blood CBC and differential); type: in vivo, ICR mice; settings: 10 mg/kg i.v., day 3
Procedure: Myelosuppression and neutropenia studies. […] Empty vesicles were administered as a control. CBC and differential analysis was performed at Central Labs for Veterinarians (Langley, BC) to quantify cellular levels, ratios and morphology.

[3] = test system: MX-1 human breast carcinoma; assay: MX-1 human breast carcinoma xenograft (s.c.), efficacy and toxicity; type: in vivo, nude mice
Procedure: Tumor Models. […] Human MX-1 and LX-1 cell lines were obtained from the DCTD Tumor Repository in Frederick, Md. These cell lines were received as tumor fragments and were propagated in NCr nude mice by serial transplantation of 3×3 mm fragments. Experiments were not initiated until the cell lines had been through 3 passages in nude mice and the tumor lines were restarted when the passage number reached 10.
Efficacy Studies. […] For the MX-1 and LX-1 tumor models, tumor volume was determined by repeated perpendicular measurements of tumor dimensions and using the formula: Volume (mm^3)=(L×W^2)/2

[4] = test system: LX-1 human lung carcinoma; assay: LX-1 human lung carcinoma xenograft (s.c.), efficacy and toxicity; type: in vivo, nude mice; settings: LX-1, single dose; free at evaluated doses <30 mg/kg
Excerpt: In the above formula, MTD is the maximum tolerated dose, defined as that dose that causes a mean weight loss of 20% in a group of animals; and MED is the minimal effective dose, defined as the dose that produces an optimal % T/C value of ≦40 in the solid tumor models or an % ILS of 50±10% in the survival models.

[5] = cited from earlier work
[6] = MX-1 s.c., single i.v. dose 5 mg/kg

CC[C@@]1(O)C(=O)OCc2c1cc1n(c2=O)Cc2cc3c(CN(C)C)c(O)ccc3nc2-1 [Free, 9-dimethylaminomethyl-10-hydroxy-camptothecin]
AUC ([1]; 1 mg/kg i.v.): 1970 ng·h/mL
Cmax ([1]; 1 mg/kg i.v.): 750 ng/mL
clearance ([1]; 1 mg/kg i.v.): 0.232 mL/min
AUC ([1]; 5 mg/kg i.v.): 2770 ng·h/mL
Cmax ([1]; 5 mg/kg i.v.): 2170 ng/mL
clearance ([1]; 5 mg/kg i.v.): 0.827 mL/min
α1/2 ([1]; 1 mg/kg i.v.): 0.14 h
α1/2 ([1]; 5 mg/kg i.v.): 0.26 h
differences in neutrophil, WBC and lymphocyte parameters [2]: No significant differences
anti-tumor activity ([3]; MX-1, q7dx3, 5 or 10 mg/kg/dose): little activity
% T/C (optimal, following final treatment) ([3]; MX-1 s.c., q7dx3, 10 mg/kg/dose i.v.): 61%
% T/C (optimal, following final treatment) [3, 6]: 78%
T − C (tumor growth delay to 500 mm^3) [3, 6]: 0.2 days
% T/C (optimal, following final treatment) ([3]; MX-1 s.c., single i.v. dose 40 mg/kg): 24%
anti-tumor activity in initial single dose studies [4]: inactive
LD10 ([5]; qdx5 schedule, converted): ~4.7 mg/kg/dose
LD10 ([5]; single intravenous infusion in mice (Hycamtin product monograph)): 75 mg/M^2
LD10 ([5]; single intravenous infusion in mice, converted): ~25 mg/kg
